# Results published in patent US20250319063A1, “METHODS AND COMPOUNDS FOR RESTORING MUTANT P53 FUNCTION” (PMV PHARMACEUTICALS, INC., priority 2022, published 2025).
# “Also recorded” adds a separate entry of the source. Where two headings read alike, the source gives them in different places.
# Tests used:
# [1] = Urine pharmacokinetics in healthy subjects (Ae, CLR, fe); type: in vivo, human; conditions: for CL renal: both sexes, human, urine, oral, read-out: renal clearance (CLR), geometric mean (converted)
# Method: Urine for the analysis of study drug was also collected. Participants were asked to void at the end of each collection period to ensure complete collection of urine during each interval. The entire volume of urine voided during each interval was collected and recorded, and a small volume stored for analysis of study drug concentrations.
# Various pharmacokinetic (PK) parameters were determined for each subject. (FIGS. 29-31). For example, amount of drug excreted unchanges in urine (Ae), renal clearance (CLR), and fraction excreted in urine (fe).
# [2] = Pharmacokinetic analysis of patient plasma (LC/MS/MS, noncompartmental analysis); type: in vivo; conditions: for half-life: human, plasma
# Text: Serial blood samples for PK assessments were collected from all patients, including adolescents. Serial blood samples from all patients were also collected for PDc assessment of response to Compound 1. Pre- and on-treatment tumor biopsies for PDc assessment were optional. The relationship between plasma Compound 1 concentrations and pharmacodynamic biomarkers of response were explored. When the MTD was established, this cohort was expanded up to 12 patients. At least one additional cohort at a total daily dose below the MTD and considered to be active were expanded up to 12 patients. These expanded cohorts provided additional information about the relationship between dose, safety/tolerability, and efficacy to inform the selection of RP2D. Data from Phase 1 are reviewed to assess the benefit-risk for each dose level when selecting RP2D. The RP2D is determined as the dose resulting in the best therapeutic window for Compound 1 based on the review of all available safety, PK, PDc, and preliminary efficacy data. The RP2D can be the same as the MTD or below the MTD.
# Compound 1 concentration data were summarized by dose level and Study Day using nominal time points. Individual and mean concentrations versus nominal time plots were presented by dose level. Pharmacokinetic parameter values were derived by non-compartmental methods by a validated pharmacokinetic analysis program. Actual times were used for all formal analyses. PK parameters were summarized by dose level. Individual values were listed for each PK parameter (e.g., Cmax, Tmax, AUC0-T, AUCtau, Ctrough/Ctau, accumulation ratios) by dose level, and the following (non-model-based) descriptive statistics were provided: N (number of patients with non-missing data), arithmetic mean, standard deviation, arithmetic percent coefficient of variation (CV) (calculated as 100×standard deviation/arithmetic mean), median, minimum, maximum, geometric mean, and geometric percent CV (calculated as: […]
# Plasma samples were analyzed for levels of Compound 1 via a validated LC/MS/MS method. The concentration data were analyzed using Phoenix version 8.2 via noncompartmental analysis.
compound,measurement,setting,value
"CNC(=O)c1ccc(NCC#Cc2cc3c(N[C@@H]4CCN(C)C[C@@H]4F)cccc3n2CC(F)(F)F)c(OC)c1 [Compound 1, 4-((3-(4-(((3S,4R)-3-fluoro-1-methylpiperidin-4-yl)amino)-1-(2,2,2-trifluoroethyl)-1H-indol-2-yl)prop-2-yn-1-yl)amino)-3-methoxy-N-methylbenzamide]",maximum tolerated dose,Phase 1 dose escalation,1500 mg BID
same,daily dose tolerated,"female, human, in vivo","≤ 2,500 mg"
same,"Diarrhea (TRAE), patients","human, in vivo",5 n
same,Most frequent treatment-related AEs (>15%),"human, in vivo","nausea, vomiting, AST/ALT increase, anemia, blood creatinine increase, and fatigue"
same,"Vomiting (TRAE), patients","human, in vivo",5 n
same,daily dose tolerated,"human, in vivo","≤ 2,000 mg"
same,tolerance of treatment,"human, in vivo",overall good tolerance of treatment with mild nausea and elevated LFTs that resolved with steroids
same,Dose limiting toxicities,"human, in vivo, 21 days",Grade 3 AST/APT increase and grade 3 acute kidney injury
same,total dose excreted in urine as unchanged Compound 1,"[1]; 1000 mg, fasted, 96-hour interval",2.53%
same,total dose excreted in urine as unchanged Compound 1,"[1]; 1000 mg, fed, 96-hour interval",3.29%
same,total dose excreted in urine as Compound 1,"[1]; 2000 mg, Caucasian/non-Asian, fasted, 96-hour interval",1.90%
same,total dose excreted in urine as Compound 1,"[1]; 2000 mg, Caucasian/non-Asian, fed, 96-hour interval",3.66%
same,total dose excreted in urine as unchanged Compound 1,"[1]; 2000 mg, Japanese, fasted, 96-hour interval",2.28%
same,dose excreted in urine as unchanged Compound 1,"[1]; 96-hour interval, fasted and fed, all participants",less than 4%
same,CL renal,"[1]; 1000 mg, fasted (Part 1)",2.87 mL/min
same,CL renal,"[1]; 1000 mg, fed (Part 1)",3.1 mL/min
same,CL renal,"[1]; 2000 mg, Caucasian/non-Asian, fasted",2.53 mL/min
same,CL renal,"[1]; 2000 mg, Caucasian/non-Asian, fed",2.73 mL/min
same,CL renal,"[1]; 2000 mg, Japanese, fasted",2.33 mL/min
same,Exposures,"[2]; 2,000 mg QD, 2,500 mg QD, and 1,500 mg BID dose groups",Exposures were efficacious
same,half-life,"[2]; oral, patients, Day 15, read-out: Median half-life (converted)",19 h
same,half-life,"[2]; patients, oral QD or BID dosing, read-out: Half-lives",10 to 34 h
same,dose proportionality of exposure,"[2]; patients, Day 1 through D15",dose proportional increases in Cmax and AUC values; also recorded: linear PK over the therapeutic dose range
